Assay results from patent publication US8618111B2, “5-alkynyl-pyrimidines” (Boehringer Ingelheim International GmbH, priority 2010, dated 2013).

Columns and labels:
PI3Kalpha = PI3Kalpha (Homo sapiens (Human), UniProt P42336); experiment: Inhibition of PI3Kalpha-induced PIP-2 phosphorylation (filter-binding assay); type: biochemical; conditions: 33P-ATP
Procedure: Inhibition of PI3Kalpha-Induced PIP-2 Phosphorylation
Method Type: Filter-Binding-Assay
Aliquoted in desired amounts and stored at −80° C. Final assay concentration 25 ng/well.

mTOR = mTOR (Homo sapiens (Human), UniProt P42345); experiment: mTOR kinase activity assay (phosphorylation status of mTOR substrate 4E-BP1; TR-FRET); type: biochemical; conditions: GFP-4E-BP1 substrate, 8 μM ATP
Procedure: mTOR Kinase Activity Assay
(Phosphorylation Status of mTOR Substrate 4E-BP1; TR-FRET)
The mTOR kinase TR-FRET assay utilizes a physiologically relevant protein substrate for mTOR (4E-BP1, labeled with an acceptor fluorophore (Green Fluorescent Protein) and paired with a corresponding Tb-labeled phospho-specific antibody.
The assay itself is divided into two phases: the reaction phase and the detection phase. In the reaction phase, all components required for the kinase reaction are added to the well, including the labeled protein substrate. The reaction is allowed to incubate for 60 minutes. After the reaction, EDTA is added to stop the kinase reaction, and terbium-labeled antibody is added to bind phosphorylated product. Because the terbium chelate is stable at the EDTA concentrations used to stop a kinase assay, the antibody and EDTA can be pre-mixed prior to addition to minimize pipetting steps. Binding of the terbium labeled antibody to the fluorophore-labeled phosphorylated product brings the terbium and GFP into proximity, resulting in an increase in TR-FRET. In the presence of an inhibitor, formation of phosphorylated product is reduced, and the TR-FRET value is decreased.
• GFP-4E-BP1 substrate; Invitrogen order no. PV4759 • Lanthascreen Tb-anti-p4E-BP1 (pThr46) Antibody Kit; Invitrogen order no. PV4758 • FRAP1 (mTOR) kinase; Invitrogen order no.
400 nM GFP-4E-BP1, 8 μM ATP, ˜150 ng/mL mTOR, 50 mM HEPES pH 7.5, 0.01% Polysorbate 20, 1 mM EGTA, 10 mM MnCl2, and variable amounts of test compounds.
Note: Thaw and keep mTOR, the substrate, ATP, and the antibody on ice prior to making working dilutions. Working dilutions of these components can be kept at room temperature for short periods of time the day of use. • 1. Add 2 ml of 5× Assay Buffer to 8 ml water to prepare 10 ml of 1× Assay Buffer, wherein the concentration of 1× Assay Buffer is 50 mM HEPES pH 7.5, 0.01% Polysorbate 20, 1 mM EGTA, and 10 mM MnCl2. • 2. Prepare Antibody/EDTA Solution by first adding 2.75 μl of Tb-anti p4E-BP1 Antibody to 2397 μl of LanthaScreen™ TR-FRET Dilution Buffer. Then, add 100 μl of 0.5 M EDTA. • 3. […] Then, add 1.6 μl of mTOR (0.45 mg/mL). • 4. Prepare ATP Solution by adding 3.2 μl of 10 mM ATP to 1997 μl of 1× Assay Buffer. Serial Dilution of Inhibitors (16 Point Curve)
Inhibitors are serially diluted in DMSO, then diluted to a 4× working concentration with 1× Assay Buffer. • 1. Dispense 40 μl of DMSO to two adjacent columns of a 96 well plate per compound (e.g. columns 1 and 2). • 2. Add 10 μl of inhibitor stock (10 mM) to the first well of the first column (A1) and mix. • 3. Remove 10 μl from A1 and transfer to the adjacent well in the next column (B1) and mix. • 4. Remove 10 μl from B1 and transfer to the next well in the first column (B2) and mix. • 5. […] Remove 4 μl of diluted compounds and add to 96 μl of 1× Assay Buffer in a 96-well plate making 4× compound dilutions. Kinase Reaction • 1. Add 2.5 μl of 4X compound dilutions to a 384-well plate. • 2. […] Preincubate for […] at RT (shaker). • 5. Add 5 μl of ATP Solution to all wells to start reactions. • 6. Shake the assay plate on a plate shaker for 30 seconds. • 7. Incubate the assay plate for one hour at room temperature (20-25° C.). Stop Step and Fluorescence Detection • 1. Add 10 μl of Antibody/EDTA Solution to each well in columns 1-9. • 2. Shake the assay plate on a plate shaker for 30 seconds. • 3. Incubate the assay plate for one hour at room temperature (20-25° C.). • 4. Measure the GFP (FRET) and terbium (reference) emission signals on a fluorescence plate reader (e.g. Perkin Elmer Envision). Data Analysis • 1. Calculate the emission ratio for each sample by dividing the GFP (FRET) signal by the terbium (reference) signal. • 2.

[1] = test system: PC3 (human prostate carcinoma cell line) cells; experiment: PC3 proliferation test; type: cell-based; conditions: PC-3, 72 h, 3 days incubation, DNA dye fluorescence
Procedure: The test is based on measurement of cellular DNA content via fluorescent dye binding. Because cellular DNA content is highly regulated, it is closely proportional to cell number. The extent of proliferation is determined by comparing cell counts for samples treated with drugs with untreated controls.
PC3 (human prostate carcinoma cell line) cells are sown in microtitre plates and incubated overnight in culture medium at 37° C. and 5% CO2. The test substances are diluted stepwise and added to the cells such that the total volume is 200 μL/well. Cells to which diluent, but not substance, is added serve as controls.

Sequence of mTOR (P42345 1360-2549): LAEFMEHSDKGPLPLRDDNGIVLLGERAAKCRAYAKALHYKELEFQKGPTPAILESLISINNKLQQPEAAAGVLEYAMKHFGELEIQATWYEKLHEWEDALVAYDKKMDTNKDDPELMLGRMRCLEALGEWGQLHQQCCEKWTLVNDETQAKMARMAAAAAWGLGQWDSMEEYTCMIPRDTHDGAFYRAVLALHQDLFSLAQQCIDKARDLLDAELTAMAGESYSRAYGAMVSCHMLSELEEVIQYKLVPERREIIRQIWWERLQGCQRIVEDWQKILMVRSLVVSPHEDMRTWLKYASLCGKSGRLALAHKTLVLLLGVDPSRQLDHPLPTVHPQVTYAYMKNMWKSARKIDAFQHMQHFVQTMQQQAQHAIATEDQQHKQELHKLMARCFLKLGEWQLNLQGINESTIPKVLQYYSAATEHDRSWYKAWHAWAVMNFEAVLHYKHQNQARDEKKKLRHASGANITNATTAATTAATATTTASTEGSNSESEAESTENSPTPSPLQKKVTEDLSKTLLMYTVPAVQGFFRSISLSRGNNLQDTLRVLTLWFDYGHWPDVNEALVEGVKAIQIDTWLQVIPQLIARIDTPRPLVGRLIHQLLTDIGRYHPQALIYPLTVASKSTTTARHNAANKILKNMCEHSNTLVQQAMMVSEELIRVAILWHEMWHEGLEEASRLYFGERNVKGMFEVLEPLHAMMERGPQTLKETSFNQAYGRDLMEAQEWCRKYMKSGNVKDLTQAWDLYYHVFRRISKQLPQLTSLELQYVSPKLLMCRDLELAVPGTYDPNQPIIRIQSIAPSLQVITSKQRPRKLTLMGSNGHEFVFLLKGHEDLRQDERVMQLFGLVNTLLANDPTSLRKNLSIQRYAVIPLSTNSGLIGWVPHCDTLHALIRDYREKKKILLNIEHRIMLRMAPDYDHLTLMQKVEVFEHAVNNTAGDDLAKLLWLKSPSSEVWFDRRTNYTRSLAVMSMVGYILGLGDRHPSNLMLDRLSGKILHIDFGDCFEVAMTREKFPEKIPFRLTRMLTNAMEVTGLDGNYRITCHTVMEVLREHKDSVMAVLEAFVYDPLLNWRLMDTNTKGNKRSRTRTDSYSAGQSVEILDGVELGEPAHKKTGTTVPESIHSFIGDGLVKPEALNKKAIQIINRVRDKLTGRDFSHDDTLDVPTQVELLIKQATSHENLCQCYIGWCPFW
Sequence of PI3Kalpha (P42336 whole entry, species assumed): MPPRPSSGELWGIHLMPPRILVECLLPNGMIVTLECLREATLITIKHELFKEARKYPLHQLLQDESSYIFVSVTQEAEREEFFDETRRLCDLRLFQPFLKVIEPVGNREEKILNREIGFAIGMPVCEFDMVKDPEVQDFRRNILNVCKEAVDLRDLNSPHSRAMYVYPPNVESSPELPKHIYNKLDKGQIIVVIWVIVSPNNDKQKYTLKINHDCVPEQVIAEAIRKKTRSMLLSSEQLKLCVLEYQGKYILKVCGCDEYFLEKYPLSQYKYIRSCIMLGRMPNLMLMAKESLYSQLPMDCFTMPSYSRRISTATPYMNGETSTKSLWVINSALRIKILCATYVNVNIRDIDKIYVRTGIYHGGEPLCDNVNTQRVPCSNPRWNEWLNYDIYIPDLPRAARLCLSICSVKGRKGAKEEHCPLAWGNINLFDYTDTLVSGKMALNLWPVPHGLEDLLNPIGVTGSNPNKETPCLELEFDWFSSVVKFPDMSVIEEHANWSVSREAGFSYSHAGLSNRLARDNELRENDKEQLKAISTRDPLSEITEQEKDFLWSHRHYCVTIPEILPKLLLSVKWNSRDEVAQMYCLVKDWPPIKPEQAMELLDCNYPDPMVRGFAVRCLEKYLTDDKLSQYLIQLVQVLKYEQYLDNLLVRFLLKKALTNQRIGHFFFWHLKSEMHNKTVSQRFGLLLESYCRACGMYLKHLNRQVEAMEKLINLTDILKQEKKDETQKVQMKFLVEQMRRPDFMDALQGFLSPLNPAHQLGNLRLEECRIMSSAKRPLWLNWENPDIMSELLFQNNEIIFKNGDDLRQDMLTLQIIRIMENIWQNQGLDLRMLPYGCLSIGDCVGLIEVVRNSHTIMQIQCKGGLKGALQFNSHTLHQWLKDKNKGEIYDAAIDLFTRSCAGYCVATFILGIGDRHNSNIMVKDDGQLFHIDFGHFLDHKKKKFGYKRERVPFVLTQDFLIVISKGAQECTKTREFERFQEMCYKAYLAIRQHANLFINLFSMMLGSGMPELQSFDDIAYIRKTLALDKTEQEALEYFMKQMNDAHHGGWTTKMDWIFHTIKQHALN
Sequence of PI3Kalpha (P27986 whole entry partner, species assumed): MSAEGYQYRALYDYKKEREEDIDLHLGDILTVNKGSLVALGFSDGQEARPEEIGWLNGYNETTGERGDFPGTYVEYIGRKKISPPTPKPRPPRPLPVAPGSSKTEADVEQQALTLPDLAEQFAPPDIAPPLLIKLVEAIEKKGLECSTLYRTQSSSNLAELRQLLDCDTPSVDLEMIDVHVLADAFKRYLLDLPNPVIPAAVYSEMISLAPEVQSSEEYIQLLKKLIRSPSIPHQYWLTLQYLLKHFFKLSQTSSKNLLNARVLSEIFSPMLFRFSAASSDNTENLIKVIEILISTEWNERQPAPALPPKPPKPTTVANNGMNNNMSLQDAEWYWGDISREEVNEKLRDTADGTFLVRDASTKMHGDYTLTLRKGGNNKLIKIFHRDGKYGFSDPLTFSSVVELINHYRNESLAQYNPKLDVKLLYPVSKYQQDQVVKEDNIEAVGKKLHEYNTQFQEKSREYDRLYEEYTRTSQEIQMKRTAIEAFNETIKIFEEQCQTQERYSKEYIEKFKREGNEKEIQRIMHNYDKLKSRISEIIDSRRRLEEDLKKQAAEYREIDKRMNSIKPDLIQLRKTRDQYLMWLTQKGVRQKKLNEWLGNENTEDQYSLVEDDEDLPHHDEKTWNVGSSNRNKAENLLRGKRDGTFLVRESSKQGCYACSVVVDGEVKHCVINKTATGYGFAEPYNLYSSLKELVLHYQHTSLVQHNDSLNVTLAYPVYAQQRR

SMILES | IC50 PI3Ka (PI3Kalpha) [nM] | IC50 (mTOR) [nM] | EC50 [1] [nM]
CCc1ncnc(N2CC[S+]([O-])CC2)c1C#Cc1ccc(N)nc1 [Example B-52] | 104 | 28 | 180
CCc1ncnc(N2CCS(=O)(=O)CC2)c1C#Cc1ccc(N)nc1 [Example B-53] | 380 | 12 | 142
CCc1ncnc(N2CCNC(=O)CC2)c1C#Cc1ccc(N)nc1 [Example B-54] | 133 | 14 | 211
CCc1ncnc(N2CCN(CCOC)CC2)c1C#Cc1ccc(N)nc1 [Example B-55] | 718 | 26 | 191
CCc1ncnc(N2CCN(C)CC2)c1C#Cc1ccc(N)nc1 [Example B-56] | 1551 | 57 | 268
CCc1ncnc(N2CCOCC2)c1C#Cc1ccc(N)nc1 [Example B-57] | 46 | 93 | 119
CCc1ncnc(N2CCCC2)c1C#Cc1ccc(N)nc1 [Example B-58] | 131 | 42 | 492
CCc1ncnc(N2CCC(C)(OC)CC2)c1C#Cc1ccc(N)nc1 [Example B-59] | 53 | 5 | 23
Cc1ncnc(N2CCC3(CC2)OCCCO3)c1C#Cc1ccc(N)nc1 [Example B-60] | 14 | 6 | 75
CCc1ncnc(N2CCC3(CC2)OCCCO3)c1C#Cc1ccc(N)nc1 [Example B-61] | 43 | 4 | 33
CCc1ncnc(N2CCC(=O)CC2)c1C#Cc1ccc(N)nc1 [Example B-62] | 109 | 28 | 105
CCc1ncnc(N2CCC(O)(C(C)C)CC2)c1C#Cc1ccc(N)nc1 [Example B-63] | 15 | 0.61 | 8
CCc1ncnc(N2CCC(O)C(C)C2)c1C#Cc1ccc(N)nc1 (stereo not drawn) [Example B-64] | 55 | 10 | 53
Cc1ncnc(N2CCC(O)(C(C)C)CC2)c1C#Cc1ccc(N)nc1 [Example B-66] | 51 | 5 | 24
Cc1ncnc(N2CCC(O)C(C)C2)c1C#Cc1ccc(N)nc1 (stereo not drawn) [Example B-67] | 90 | 43 | 174
CCc1ncnc(N2CCC(OC)CC2)c1C#Cc1ccc(C)nc1 [Example B-68] | 183 | 122 | 589
CCOC1CCN(c2ncnc(CC)c2C#Cc2ccc(C)nc2)CC1 [Example B-69] | 99 | 168 | 783
CCc1ncnc(N2CCC(O)CC2)c1C#Cc1ccc(C)nc1 [Example B-70] | 139 | 141 | 684
CCc1ncnc(N2CCCC(CO)C2)c1C#Cc1ccc(C)nc1 (stereo not drawn) [Example B-71] | 90 | 108 | 388
CCc1ncnc(N2CCC(CO)CC2)c1C#Cc1ccc(C)nc1 [Example B-72] | 134 | 70 | 474
CCc1ncnc(N2CCC(C)(O)CC2)c1C#Cc1ccc(C)nc1 [Example B-73] | 84 | 30 | 160

SMILES | IC50 PI3Ka (PI3Kalpha) [nM] | IC50 (mTOR) [nM] | EC50 [1] [nM]
Cc1ncnc(N2CCC(O)(C3CCCCC3)CC2)c1C#Cc1ccc(N)nc1 [Example B-74] | 98 | 30 | 195
Cc1ncnc(N2CCC3(CCN(C)C3=O)CC2)c1C#Cc1ccc(N)nc1 [Example B-75] | 48 | 10 | 92
Cc1ncnc(N2CCn3c(C)cnc3C2)c1C#Cc1ccc(N)nc1 [Example B-76] | 60 | 97 | 233
CCc1ncnc(N2CCC3(CCN(C)C3=O)CC2)c1C#Cc1ccc(N)nc1 [Example B-77] | 67 | 8 | 43
CCc1ncnc(N2CCn3c(C)cnc3C2)c1C#Cc1ccc(N)nc1 [Example B-78] | 72 | 31 | 101
Cc1ncnc(N2CCN(CC(C)(C)O)CC2)c1C#Cc1ccc(N)nc1 [Example B-79] | 53 | 18 | 238
Cc1ncnc(N2CCC3(CCN(C)CC3)CC2)c1C#Cc1ccc(N)nc1 [Example B-80] | 99 | 25 | 161
CCc1ncnc(N2CCN(CC(C)(C)O)CC2)c1C#Cc1ccc(N)nc1 [Example B-81] | 143 | 7 | 71
CCc1ncnc(N2CCC3(CC2)CC(=O)NC(=O)C3)c1C#Cc1ccc(N)nc1 [Example B-82] | 38 | 5 | 77
Cc1ncnc(N2CCC3(CCNC3=O)CC2)c1C#Cc1ccc(N)nc1 [Example B-84] | 32 | 19 | 126
CCc1ncnc(N2CCC3(CCNC3=O)CC2)c1C#Cc1ccc(N)nc1 [Example B-85] | 95 | 30 | 153
CCc1ncnc(N2CCC(OC)CC2)c1C#Cc1ccc(NC)nc1 [Example B-86] | 94 | 9 | 115
CCc1ncnc(N2CCC(O)CC2)c1C#Cc1ccc(NC)nc1 [Example B-87] | 76 | 20 | 104
Cc1ncnc(N2CCC(CC(=O)N(C)C)CC2)c1C#Cc1ccc(N)nc1 [Example E-1] | 54 | 45 | 221
COCCNC(=O)CC1CCN(c2ncnc(C)c2C#Cc2ccc(N)nc2)CC1 [Example E-4] | 66 | 144 | 300
CCNC(=O)CC1CCN(c2ncnc(C)c2C#Cc2ccc(N)nc2)CC1 [Example E-5] | 38 | 58 | 171
Cc1ncnc(N2CCC(CC(=O)N3CCOCC3)CC2)c1C#Cc1ccc(N)nc1 [Example E-6] | 83 | 59 | 358
CCN(C)C(=O)CC1CCN(c2ncnc(C)c2C#Cc2ccc(N)nc2)CC1 [Example E-7] | 44 | 53 | 266
CC(=O)NCC1CCN(c2ncnc(C)c2C#Cc2ccc(N)nc2)CC1 [Example F-1] | 36 | 15 | 135
CCCCCC(=O)NCC1CCN(c2ncnc(C)c2C#Cc2ccc(N)nc2)CC1 [Example F-2] | 23 | 31 | 344
Cc1ncnc(N2CCC(CNC(=O)CC3CCCC3)CC2)c1C#Cc1ccc(N)nc1 [Example F-3] | 39 | 16 | 335
